Patent publication US4520101A (priority 1983, dated 1985)
Where “and” joins values, the source holds several entries; their conditions need not be identical. Equal entries are not always repeated.

Test system: Cephalosporium acremonium (a high ceph C-producing mutant strain which also produces desacetyl ceph C)
Assay type: cell-based

Q: Which “Ceph C” value does the source give for `CCOP(=O)(OCC)C(C)=O` [diethyl acetyl phosphonate] here?
A: Its value is 9285 µg/g and 9665 µg/g.

Q: And the “Des C/Total Ceph Nucleus (Ceph C + Des Ceph C)” value?
A: The value was 4.52% and 4.40%.

Q: And the “Des Ceph C” value?
A: The value was 440 µg/g and 445 µg/g.
